Experimental data reported in patent US20220370453A1 (Storm Therapeutics Ltd, priority 2019, published 2022).

Experiments:
[1] = molecular target: T1, BCDIN3D (Homo sapiens, UniProt Q7Z5W3); experiment: BCDIN3D InCellPulse thermal stability assay in transfected A549 cells; assay type: cell-based; details: transiently transfected A549 cells, heat shock 58° C. 15 min
T1 sequence (Q7Z5W3 1-292): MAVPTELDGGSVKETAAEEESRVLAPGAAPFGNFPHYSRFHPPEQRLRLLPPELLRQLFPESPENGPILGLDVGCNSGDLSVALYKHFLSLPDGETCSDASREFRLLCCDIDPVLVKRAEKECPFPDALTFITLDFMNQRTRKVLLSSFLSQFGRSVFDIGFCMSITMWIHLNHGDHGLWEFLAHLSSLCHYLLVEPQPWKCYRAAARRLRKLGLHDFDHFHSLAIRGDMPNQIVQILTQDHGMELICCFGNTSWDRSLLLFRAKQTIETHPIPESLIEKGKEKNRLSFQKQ
In short: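 A549 cells transiently expressing BCDIN3D N-terminally fused to ePL ProLabel tag, 1500 cells/well, pre-incubated 1 h at 37 °C with compound (0.6% DMSO). Heat shock 58 °C for 15 min; remaining soluble fusion detected by split β-galactosidase complementation luminescence.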

[2] = molecular target: T1, BCDIN3D; experiment: BCDIN3D IC50 RFMS (RapidFire) assay with mini-helix; assay type: biochemical; details: mini-helix substrate 0.2 μM, SAM 6 μM, 25 nM enzyme
In short: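 25 nM enzyme preincubated 10 min at room temperature with compound (1% DMSO) in 25 mM Tris pH 8.0, 10 mM DTT, 1 mM EDTA, 0.03% BSA. Reaction started with 0.2 μM mini-helix plus 6 μM SAM, run 1 h at 37 °C, quenched with TCA; SAH product quantified by RapidFire MS against isotopic SAH standards.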

Structure (SMILES) | IC50 [1] | IC50 [2]
Cn1ncc2c(Nc3ccc(OC(F)F)cc3)nc(NCC3(N)CC3)nc21 [Compound 2.34, 6-N-[(1-aminocyclopropyl)methyl]-4-N-[4-(difluoromethoxy)phenyl]-1-methylpyrazolo[3,4-d]pyrimidine-4,6-diamine] | 1420 nM | 201 nM
Cn1ncc2c(Nc3cccc(Cl)c3)nc(NCC3(N)CC3)nc21 [Compound 2.35, 6-N-[(1-aminocyclopropyl)methyl]-4-N-(3-chlorophenyl)-1-methylpyrazolo[3,4-d]pyrimidine-4,6-diamine] | 1980 nM | 260 nM
Cn1ncc2c(Nc3ccc(C(F)F)cc3)nc(NCC3(N)CC3)nc21 [Compound 2.36, 6-N-[(1-aminocyclopropyl)methyl]-4-N-[4-(difluoromethyl)phenyl]-1-methylpyrazolo[3,4-d]pyrimidine-4,6-diamine] | 1980 nM | 138 nM
Cn1ncc2c(NC34CC(C#N)(C3)C4)nc(NCC3(N)CC3)nc21 [Compound 2.37, 3-[[6-[(1-aminocyclopropyl)methylamino]-1-methylpyrazolo[3,4-d]pyrimidin-4-yl]amino]bicyclo[1.1.1]pentane-1-carbonitrile] | 16500 nM | 8600 nM
Cn1ncc2c(Nc3ccc(F)c(F)c3)nc(NCC3(N)CC3)nc21 [Compound 2.39, 6-N-[(1-aminocyclopropyl)methyl]-4-N-(3,4-difluorophenyl)-1-methylpyrazolo[3,4-d]pyrimidine-4,6-diamine] | 2130 nM | 350 nM
Cn1ncc2c(Nc3ccc(Cl)c(Cl)c3)nc(NCC3(N)CC3)nc21 [Compound 2.40, 6-N-[(1-aminocyclopropyl)methyl]-4-N-(3,4-dichlorophenyl)-1-methylpyrazolo[3,4-d]pyrimidine-4,6-diamine] | 234 nM | 33.3 nM
COc1cc(Nc2nc(NCC3(N)CC3)nc3c2cnn3C)ccc1Cl [Compound 2.41, 6-N-[(1-aminocyclopropyl)methyl]-4-N-(4-chloro-3-methoxyphenyl)-1-methylpyrazolo[3,4-d]pyrimidine-4,6-diamine] | 1610 nM | 211 nM
COc1ccc(CNc2nc(NCC3(N)CC3)nc3c2cnn3C)c(OC)c1 [Compound 2.42, N6-[(1-aminocyclopropyl)methyl]-N4-[(2,4-dimethoxyphenyl)methyl]-1-methyl-pyrazolo[3,4-d]pyrimidine-4,6-diamine] | 2990 nM | 1260 nM
Cn1ncc2c(NC34CC(F)(C3)C4)nc(NCC3(N)CC3)nc21 [Compound 2.43, N6-[(1-aminocyclopropyl)methyl]-N4-{3-fluorobicyclo[1.1.1]pentan-1-yl}-1-methyl-1H-pyrazolo[3,4-d]pyrimidine-4,6-diamine] | 5940 nM | 2790 nM
Cn1ncc2c(Nc3ccc(C(F)(F)F)cc3)nc(NCC3(N)CC3)nc21 [Compound 2.44, 6-N-[(1-aminocyclopropyl)methyl]-1-methyl-4-N-[4-(trifluoromethyl)phenyl]pyrazolo[3,4-d]pyrimidine-4,6-diamine] | 329 nM | 56.5 nM
Cn1ncc2c(Nc3ccc(C(F)(F)F)nc3)nc(NCC3(N)CC3)nc21 [Compound 2.45, 6-N-[(1-aminocyclopropyl)methyl]-1-methyl-4-N-[6-(trifluoromethyl)pyridin-3-yl]pyrazolo[3,4-d]pyrimidine-4,6-diamine] | 2470 nM | 424 nM
Cn1ncc2c(Nc3ccc(Cl)cn3)nc(NCC3(N)CC3)nc21 [Compound 2.46, 6-N-[(1-aminocyclopropyl)methyl]-4-N-(5-chloropyridin-2-yl)-1-methylpyrazolo[3,4-d]pyrimidine-4,6-diamine] | 6530 nM | 2100 nM
Cn1ncc2c(Nc3cnc(C(F)(F)F)cn3)nc(NCC3(N)CC3)nc21 [Compound 2.47, N6-[(1-aminocyclopropyl)methyl]-1-methyl-N4-[5-(trifluoromethyl)pyrazin-2-yl]pyrazolo[3,4-d]pyrimidine-4,6-diamine] | 8300 nM | 4520 nM
CCn1ncc2c(Nc3ccc(C(F)(F)F)cc3)nc(NCC3(N)CC3)nc21 [Compound 2.48, 6-N-[(1-aminocyclopropyl)methyl]-1-ethyl-4-N-[4-(trifluoromethyl)phenyl]pyrazolo[3,4-d]pyrimidine-4,6-diamine] | 2430 nM | 1080 nM
[2H]C([2H])([2H])n1ncc2c(Nc3ccc(C(F)(F)F)cc3)nc(NCC3(N)CC3)nc21 [Compound 2.49, N6-[(1-aminocyclopropyl)methyl]-1-(trideuteriomethyl)-N4-[4-(trifluoromethyl)phenyl]pyrazolo[3,4-d]pyrimidine-4,6-diamine] | 379 nM | 50 nM
[2H]C([2H])([2H])n1ncc2c(Nc3ccc(C(F)(F)F)nc3)nc(NCC3(N)CC3)nc21 [Compound 2.50, N6-[(1-aminocyclopropyl)methyl]-1-(trideuteriomethyl)-N4-[6-(trifluoromethyl)-3-pyridyl]pyrazolo[3,4-d]pyrimidine-4,6-diamine] | 2980 nM | 344 nM
C#CCCC1(CCOc2ccc(CNc3nc(NCC4(N)CC4)nc4c3cnn4C)cc2Cl)N=N1 [Compound 2.51, 6-N-[(1-aminocyclopropyl)methyl]-4-N-[[4-[2-(3-but-3-ynyldiazirin-3-yl)ethoxy]-3-chlorophenyl]methyl]-1-methylpyrazolo[3,4-d]pyrimidine-4,6-diamine] | 252 nM | 179 nM
Cn1ncc2c(Nc3ccc(C(F)(F)F)cc3)cc(NCC3(N)CC3)nc21 [Compound 2.52, N6-[(1-Aminocyclopropyl)methyl]-1-methyl-N4-[4-(trifluoromethyl)phenyl]pyrazolo[3,4-b]pyridine-4,6-diamine] | 8890 nM | 6900 nM

Now from value to molecule:

IC50 [1] | IC50 [2] | Structure (SMILES)
2280 nM | 3320 nM | Cc1ccc(CNc2nc(NCC(C)N)nc3c2cnn3C)cc1Cl (stereo not shown) [Compound 3.01, 6-N-(2-aminopropyl)-4-N-[(3-chloro-4-methylphenyl)methyl]-1-methylpyrazolo[3,4-d]pyrimidine-4,6-diamine]
1450 nM | 665 nM | Cc1ccc(CNc2nc(NC[C@@H](C)N)nc3c2cnn3C)cc1Cl [Compound 3.04, 6-N-[(2R)-2-aminopropyl]-4-N-[(3-chloro-4-methylphenyl)methyl]-1-methylpyrazolo[3,4-d]pyrimidine-4,6-diamine]
1440 nM | 1440 nM | CC[C@@H](CN)Nc1nc(NCc2ccc(C)c(Cl)c2)c2cnn(C)c2n1 [Compound 3.05]
4420 nM | 3420 nM | CC[C@H](N)CNc1nc(NCc2ccc(C)c(Cl)c2)c2cnn(C)c2n1 [Compound 3.06, 6-N-[(2S)-2-aminobutyl]-4-N-[(3-chloro-4-methylphenyl)methyl]-1-methylpyrazolo[3,4-d]pyrimidine-4,6-diamine]
664 nM | 299 nM | CC[C@@H](N)CNc1nc(NCc2ccc(C)c(Cl)c2)c2cnn(C)c2n1 [Compound 3.07, 6-N-[(2R)-2-aminobutyl]-4-N-[(3-chloro-4-methylphenyl)methyl]-1-methylpyrazolo[3,4-d]pyrimidine-4,6-diamine]
259 nM | 50.5 nM | Cn1ncc2c(Nc3ccc(C(F)(F)F)cc3)nc(NCC3(N)CCC3)nc21 [Compound 3.08, N6-[(1-aminocyclobutyl)methyl]-1-methyl-N4-[4-(trifluoromethyl)phenyl]pyrazolo[3,4-d]pyrimidine-4,6-diamine]
503 nM | 201 nM | Cn1ncc2c(Nc3ccc(OC(F)F)cc3)nc(NCC3(N)CCC3)nc21 [Compound 3.09, N6-[(1-aminocyclobutyl)methyl]-N4-[4-(difluoromethoxy)phenyl]-1-methyl-pyrazolo[3,4-d]pyrimidine-4,6-diamine]
123 nM | 228 nM | Cn1ncc2c(NC(C)(C)C)nc(NCC(N)C3CCCCC3)nc21 (stereo not shown) [Compound 3.10, N6-(2-amino-2-cyclohexyl-ethyl)-N4-tert-butyl-1-methyl-pyrazolo[3,4-d]pyrimidine-4,6-diamine]
65.4 nM | 101 nM | Cn1ncc2c(Nc3ccc(C(F)(F)F)cc3)nc(NCC(N)C3CCCCC3)nc21 (stereo not shown) [Compound 3.11, N6-(2-amino-2-cyclohexyl-ethyl)-1-methyl-N4-[4-(trifluoromethyl)phenyl]pyrazolo[3,4-d]pyrimidine-4,6-diamine]
1570 nM | 479 nM | Cn1ncc2c(Nc3ccc(C(F)(F)F)cc3)nc(NCC3(N)CC(F)(F)C3)nc21 [Compound 3.12, 6-N-[(1-amino-3,3-difluorocyclobutyl)methyl]-1-methyl-4-N-[4-(trifluoromethyl)phenyl]pyrazolo[3,4-d]pyrimidine-4,6-diamine]
510 nM | 180 nM | Cn1ncc2c(Nc3ccc(C(F)(F)F)cc3)nc(NCC(N)C3CC3)nc21 (stereo not shown) [Compound 3.13, 6-N-(2-amino-2-cyclopropylethyl)-1-methyl-4-N-[4-(trifluoromethyl)phenyl]pyrazolo[3,4-d]pyrimidine-4,6-diamine]
